Drawing on PubChem BioAssay AID264 (DTP/NCI, 2004), this text covers T/C for 18 molecules.

The structures appear in SMILES notation. Several values for one entry are separate records, joined by “and”; a condition that tells them apart may be missing. Equal values may be shown once. Records with an inconclusive call do not appear.

The assay concerns nude mice, LX-1 lung xenograft intrarenal, tumor weight T/C. Put plainly: NCI In Vivo Anticancer Drug Screen. Data for tumor model Human Lung LX-1 Xenograft (intrarenal inoculation) in NU/NU Swiss (nude) mice. The settings on record: endpoint: mean tumor weight change, higher = larger tumour. An outline of the steps:
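Readout: T/C, i.e. treated-group tumor measurement over vehicle-control measurement. Mice bearing transplantable tumors were dosed with compound or vehicle.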

The mark [1] stands for this setting: dose: 25.0 mg/kg/injection, schedule: Q01DX010 (sc), vehicle: saline.
The mark [2] stands for this setting: dose: 50.0 mg/kg/injection, schedule: Q01DX010 (sc), vehicle: saline.
Where [3] appears, read: dose: 200.0 mg/kg/injection, schedule: Q01DX010 (sc), vehicle: saline.
The mark [4] stands for this setting: dose: 25.0 mg/kg/injection, schedule: Q04DX003 (sc), vehicle: saline with Tween-80.
Where [5] appears, read: dose: 50.0 mg/kg/injection, schedule: Q04DX003 (sc), vehicle: saline with Tween-80.
Setting [6] is: dose: 100.0 mg/kg/injection, schedule: Q04DX003 (sc), vehicle: saline with Tween-80.
[7] abbreviates: dose: 200.0 mg/kg/injection, schedule: Q04DX003 (sc), vehicle: saline with Tween-80.
The mark [8] stands for this setting: dose: 75.0 mg/kg/injection, schedule: Q04DX003 (sc), vehicle: Klucel (hydroxypropylcellulose) (HPC).
[9] abbreviates: dose: 150.0 mg/kg/injection, schedule: Q04DX003 (sc), vehicle: Klucel (hydroxypropylcellulose) (HPC).

`COC(=O)[C@@]12OC[C@]34[C@H]([C@@H](O)[C@@H]1O)[C@@]1(C)CC(=O)C(O)=C(C)[C@@H]1C[C@H]3OC(=O)[C@H](OC(=O)/C=C(\C)C(C)C)[C@@H]24`: the T/C reads like this: (dose: 0.25 mg/kg/injection, schedule: Q04DX003 (sc), vehicle: saline + alcohol) 115 % of control; (dose: 0.5 mg/kg/injection, schedule: Q01DX010 (sc), vehicle: saline + alcohol) 101 % of control; (dose: 0.5 mg/kg/injection, schedule: Q04DX003 (sc), vehicle: saline + alcohol) 91 % of control; (dose: 1.0 mg/kg/injection, schedule: Q04DX003 (sc), vehicle: saline + alcohol) 114 % of control; (dose: 2.0 mg/kg/injection, schedule: Q04DX003 (sc), vehicle: saline + alcohol) 59 % of control.

On to `CNC(=O)OCc1c(COC(=O)NC)c(-c2ccc(Cl)c(Cl)c2)n2c1Cc1ccccc1C2`, for which the T/C was 97 % of control (dose: 150.0 mg/kg/injection, schedule: Q04DX003 (sc), vehicle: distilled water + Tween-80); 71 % of control (dose: 300.0 mg/kg/injection, schedule: Q04DX003 (sc), vehicle: distilled water + Tween-80); 58 % of control (dose: 600.0 mg/kg/injection, schedule: Q04DX003 (sc), vehicle: distilled water + Tween-80); 54 % of control (dose: 1200.0 mg/kg/injection, schedule: Q04DX003 (sc), vehicle: distilled water + Tween-80).

Regarding `O=C(O)CC(NC(=O)CP(=O)(O)O)C(=O)O` (stereo not drawn), the T/C reads like this: under setting [1], 51 % of control; under setting [2], 90 % of control; under setting [3], 57 % of control; (dose: 400.0 mg/kg/injection, schedule: Q01DX010 (sc), vehicle: saline) 174 % of control.

For `C[C@]12CCC(=O)C(O)=C1CC[C@@H]1[C@@H]2CC[C@]2(C)C(=O)CC[C@@H]12`, the T/C runs as follows: (dose: 50.0 mg/kg/injection, schedule: Q01DX010 (sc), vehicle: Klucel (hydroxypropylcellulose) (HPC)) 43 % of control; (dose: 100.0 mg/kg/injection, schedule: Q01DX010 (sc), vehicle: Klucel (hydroxypropylcellulose) (HPC)) 30 % of control; (dose: 200.0 mg/kg/injection, schedule: Q01DX010 (sc), vehicle: Klucel (hydroxypropylcellulose) (HPC)) 47 % of control; (dose: 400.0 mg/kg/injection, schedule: Q01DX010 (sc), vehicle: Klucel (hydroxypropylcellulose) (HPC)) 48 % of control.

In the case of `N#C[C@H](OC1OC(COC2OC(CO)C(O)C(O)C2O)C(O)C(O)C1O)c1ccccc1` (stereo partly drawn), the T/C by setting is: (dose: 900.0 mg/kg/injection, schedule: Q04DX003 (sc), vehicle: suspension in saline) 82 % of control; (dose: 1800.0 mg/kg/injection, schedule: Q04DX003 (sc), vehicle: suspension in saline) 123 % of control.

With `COC(=O)Nc1nc2ccc(C3(c4ccc(F)cc4)OCCO3)cc2[nH]1`, the T/C by setting is: under setting [4], 76 % of control; under setting [5], 71 % of control; under setting [6], 89 % of control; under setting [7], 79 % of control; (dose: 1200.0 mg/kg/injection, schedule: Q04DX003 (sc), vehicle: saline with Tween-80) 17 % of control and 37 % of control.

For `CC1(c2ccc(Cl)cc2)OC(=O)C(=Cc2ccc([N+](=O)[O-])s2)C(=O)O1` (stereo not drawn), the T/C by setting is: under setting [7], 111 % of control; (dose: 800.0 mg/kg/injection, schedule: Q04DX003 (sc), vehicle: saline with Tween-80) 80 % of control; (dose: 1600.0 mg/kg/injection, schedule: Q04DX003 (sc), vehicle: saline with Tween-80) 118 % of control.

For `C/C=C/c1cc2c(c(=O)o1)C(=O)[C@@H](O)[C@H](C)O2`, the T/C is, setting by setting: under setting [4], 92 % of control; under setting [5], 95 % of control; under setting [6], 75 % of control and 97 % of control; under setting [7], 82 % of control and 87 % of control.

In the case of `N/C(=N\O)c1cn(C2OC(CO)C(O)C2O)c2ncnc(N)c12` (stereo not drawn), the T/C (dose: 2.5 mg/kg/injection, schedule: Q04DX003 (sc), vehicle: Klucel (hydroxypropylcellulose) (HPC)) was 95 % of control; the T/C (dose: 5.0 mg/kg/injection, schedule: Q04DX003 (sc), vehicle: Klucel (hydroxypropylcellulose) (HPC)) was 99 % of control; the T/C (dose: 10.0 mg/kg/injection, schedule: Q04DX003 (sc), vehicle: Klucel (hydroxypropylcellulose) (HPC)) is 81 % of control; the T/C (dose: 20.0 mg/kg/injection, schedule: Q04DX003 (sc), vehicle: Klucel (hydroxypropylcellulose) (HPC)) is 44 % of control.

`Nc1ncnc2c1ncn2C1OC(CO)C(O)C1O` (stereo not drawn): the T/C under setting [1] was 156 % of control; the T/C under setting [2] is 97 % of control; the T/C (dose: 200.0 mg/kg/injection, schedule: Q04DX003 (sc), vehicle: saline) is 102 % of control; the T/C (dose: 400.0 mg/kg/injection, schedule: Q04DX003 (sc), vehicle: saline) was 20 % of control; the T/C (dose: 800.0 mg/kg/injection, schedule: Q04DX003 (sc), vehicle: saline) is 117 % of control; the T/C (dose: 1600.0 mg/kg/injection, schedule: Q04DX003 (sc), vehicle: saline) was 70 % of control.

`CCN(CC)c1ccc2cc(-c3nc4ccccc4n3C)c(=O)oc2c1`: the T/C is 105 % of control under setting [8] and 81 % of control under setting [9].

For `COc1cc2c(c(OC)c1OC)-c1ccc(OC)c(=O)cc1[C@@H](N)CC2`, the T/C runs as follows: (dose: 0.31 mg/kg/injection, schedule: Q01DX010 (sc), vehicle: Klucel (hydroxypropylcellulose) (HPC)) 104 % of control; (dose: 0.63 mg/kg/injection, schedule: Q01DX010 (sc), vehicle: Klucel (hydroxypropylcellulose) (HPC)) 74 % of control; (dose: 1.25 mg/kg/injection, schedule: Q01DX010 (sc), vehicle: Klucel (hydroxypropylcellulose) (HPC)) 76 % of control; (dose: 1.57 mg/kg/injection, schedule: Q01DX010 (sc), vehicle: Klucel (hydroxypropylcellulose) (HPC)) 79 % of control; (dose: 2.5 mg/kg/injection, schedule: Q01DX010 (sc), vehicle: Klucel (hydroxypropylcellulose) (HPC)) 50 % of control; (dose: 3.13 mg/kg/injection, schedule: Q01DX010 (sc), vehicle: Klucel (hydroxypropylcellulose) (HPC)) 61 % of control. For the same molecule, the T/C (dose: 6.25 mg/kg/injection, schedule: Q01DX010 (sc), vehicle: Klucel (hydroxypropylcellulose) (HPC)) is 66 % of control.

For the molecule `O=C(CC(=O)C(F)(F)F)c1csc2ccccc12`, the T/C runs as follows: under setting [8], 81 % of control; under setting [9], 70 % of control; (dose: 300.0 mg/kg/injection, schedule: Q04DX003 (sc), vehicle: Klucel (hydroxypropylcellulose) (HPC)) 93 % of control; (dose: 600.0 mg/kg/injection, schedule: Q04DX003 (sc), vehicle: Klucel (hydroxypropylcellulose) (HPC)) 87 % of control.

Consider `O=C1N(Cl)C(=O)C(c2ccc(Cl)cc2)(c2ccc(Cl)cc2)N1Cl`, for which the T/C is 98 % of control (dose: 50.0 mg/kg/injection, schedule: Q01DX010 (sc), vehicle: saline with Tween-80); 57 % of control (dose: 200.0 mg/kg/injection, schedule: Q01DX010 (sc), vehicle: saline with Tween-80); 118 % of control (dose: 400.0 mg/kg/injection, schedule: Q01DX010 (sc), vehicle: saline with Tween-80).

On to `NC(C(=O)O)c1ccc(CBr)cc1` (stereo not drawn), for which the T/C (dose: 300.0 mg/kg/injection, schedule: Q04DX003 (sc), vehicle: acid diluted with saline) is 96 % of control.

Take `O=C(Nc1ccc(C2=NCCN2)cc1)c1ccc(C(=O)Nc2ccc(C3=NCCN3)cc2)c(Cl)c1`: the T/C (dose: 12.5 mg/kg/injection, schedule: Q01DX010 (sc), vehicle: water) was 74 % of control; the T/C (dose: 25.0 mg/kg/injection, schedule: Q01DX010 (sc), vehicle: water) was 71 % of control; the T/C (dose: 50.0 mg/kg/injection, schedule: Q01DX010 (sc), vehicle: water) was 34 % of control.

Regarding `C=C1C(=O)O[C@@H]2[C@H](O)[C@@H](C)[C@@H]3C=CC(=O)[C@@]3(C)[C@H](OC(=O)C=C(C)C)[C@H]12`, the T/C runs as follows: (dose: 9.38 mg/kg/injection, schedule: Q04DX003 (sc), vehicle: saline with Tween-80) 95 % of control; (dose: 18.75 mg/kg/injection, schedule: Q04DX003 (sc), vehicle: saline with Tween-80) 101 % of control; (dose: 37.5 mg/kg/injection, schedule: Q04DX003 (sc), vehicle: saline with Tween-80) 100 % of control.

With `c1cc2n(n1)CCN2`, the T/C is 90 % of control and 233 % of control under setting [2]; 117 % of control and 124 % of control (dose: 100.0 mg/kg/injection, schedule: Q01DX010 (sc), vehicle: saline); 35 % of control under setting [3]; 67 % of control (dose: 333.33 mg/kg/injection, schedule: Q04DX003 (ip), vehicle: saline).
